Measurements reported in US20150374676A1, “HELICASE-PRIMASE INHIBITORS FOR USE IN A METHOD OF TREATING ALZHEIMER'S DISEASE” (AICURIS GMBH & CO. KG, priority 2013, published 2015).
Where two headings read alike, the source gives them in different places.

Assays:
[1] = Multiple-dose escalation, steady state pharmacokinetics in healthy volunteers; format: in vivo, human; conditions: for Ctrough: free base in plasma; for AUC / Cmax: human, plasma, oral
Description: For three doses of the mono mesylate monohydrate salt of N-[5-(aminosulfonyl)-4-methyl-1,3-thiazol-2-yl]-N-methyl-2-[4-(2-pyridinyl)phenyl]acetamide in formulations in accordance with table a, wherein the particle size distribution is preferably defined by d(0.1) from 2 to 100 μm, d(0.5) from 30 to 210 μm and d(0.9) from 70 to 400 μm with a specific surface area of the particles less than 1.0 m^2/g, and more preferably defined by d(0.1) from 10 to 75 μm, d(0.5) from 100 to 175 μm, d(0.9) from 200 to 350 μm with a specific surface area of the particles less than 0.3 m^2/g, investigated (5, 25, and 100 mg as free base equivalent; once per day oral administration, […]), the individual concentration-time curves of the free base N-[5-(aminosulfonyl)-4-methyl-1,3-thiazol-2-yl]Nmethyl-2-[4-(2-pyridinyl)phenyl]acetamide at day 1 (after the first administration) were very similar in their general shape and slope to those profiles obtained in the single dose escalation trial (see Example a).
At steady state, there was a low inter-individual variability of minimal or “trough” concentrations with CVs (coefficient of variations) between 16.7 and 21.7% (day 21). For all doses, the individual and mean concentration-time curves of the free base of N-[5-(aminosulfonyl)-4-methyl-1,3-thiazol-2-yl]-N-methyl-2-[4-(2-pyridinyl)phenyl]acet-amide at day 21 were very similar in their shape and slope to those profiles obtained at day 1.
Table c: Steady state pharmacokinetic parameters of the free base N-[5-(aminosulfonyl)-4-methyl-1,3-thiazol-2-yl]-N-methyl-2-[4-(2-pyridinyl)phenyl]acetamide at day 21 after daily administrations of 5, 25, or 100 mg as free base equivalent of the mono mesylate monohydrate salt of N-[5-(aminosulfonyl)-4-methyl-1,3-thiazol-2-yl]-N-methyl-2-[4-(2-pyridinyl)phenyl]acetamide in formulations in accordance with table a, wherein the particle size distribution is preferably defined by d(0.1) from 2 to 100 μm, d(0.5) from 30 to 210 μm and d(0.9) from 70 to 400 μm with a specific surface area of the particles less than 1.0 m^2/g, and more preferably defined by d(0.1) from 10 to 75 μm, d(0.5) from 100 to 175 μm, d(0.9) from 200 to 350 μm with a specific surface area of the particles less than 0.3 m^2/g, to healthy volunteers (n=12 per dose).

[2] = effect of food intake on pharmacokinetics; format: in vivo; conditions: human blood plasma
Description: Further, in accordance with the invention the person skilled in the art understands that food intake prior to administration of the crystalline mono mesylate monohydrate salt of N-[5-(aminosulfonyl)-4-methyl-1,3-thiazol-2-yl]-N-methyl-2-[4-(2-pyridinyl)phenyl]-acetamide of a subject may influence positively the in vivo PK/PD profile of the resultant free base of N-[5-(aminosulfonyl)-4-methyl-1,3-thiazol-2-yl]-N-methyl-2-[4-(2-pyridinyl)phenyl]-acetamide. Thus, in accordance with the invention a decreased absorption rate and a delayed tmax of the resultant free base of N-[5-(aminosulfonyl)-4-methyl-1,3-thiazol-2-yl]-N-methyl-2-[4-(2-pyridinyl)phenyl]-acetamide may be expected in […] subjects after administration of crystalline mono mesylate monohydrate salt of N-[5-(aminosulfonyl)-4-methyl-1,3-thiazol-2-yl]-N-methyl-2-[4-(2-pyridinyl)phenyl]-acetamide.

[3] = Multiple-dose escalation, steady state pharmacokinetics in healthy volunteers; format: in vivo, human; conditions: steady state after once daily single doses for 21 days
[4] = fraction unbound in cell culture medium; format: in vitro ADME
[5] = 5 mg free base equivalent once daily, day 21 steady state, healthy volunteers n=12
[6] = 25 mg free base equivalent once daily, day 21 steady state, healthy volunteers n=12
[7] = 100 mg free base equivalent once daily, day 21 steady state, healthy volunteers n=12

- Cav [1, 5]: 213 ng/mL
- t1/2z [1, 5]: 82.6 h
- Ctrough [1, 5]: 187 ng/mL
- t1/2z on average ([1]; 25 mg dosage as free base equivalent, steady state after once daily single doses for 21 days): 69 ± 6 h
- Cav [1, 6]: 977 ng/mL
- Cmax,ss [1, 6]: 1358 ng/mL
- t1/2z [1, 6]: 68.6 h
- AUCτ ([1]; 25 mg free base equivalent once daily, day 21 steady state, healthy volunteers n=12, dosing interval 24 hours): 23430 ng·h/mL
- Ctrough [1, 6]: 832 ng/mL
- Cav [1, 7]: 4540 ng/mL
- Cmax,ss [1, 7]: 6358 ng/mL
- t1/2z [1, 7]: 59.8 h
- AUCτ ([1]; 100 mg free base equivalent once daily, day 21 steady state, healthy volunteers n=12, dosing interval 24 hours): 108800 ng·h/mL
- Ctrough [1, 7]: 3743 ng/mL
- t1/2z on average ([1]; 200 mg dosage as free base equivalent, steady state after once daily single doses for 21 days): 57.19 ± 5.451 h
- dose dependence of AUC0-24h and Cmax at day 1 ([1]; 5, 25, 100 mg free base equivalent, after the first administration): dose-proportional increases
- dose dependence of exposure at steady state (Ctrough, AUCτ, Cmax,ss, Cav) ([1]; 5, 25, 100 mg once daily): dose-proportional increase
- accumulation ratio R for AUC and Cmax ([1]; all doses applied (5, 25, 100 mg once daily)): ~5
- apparent total clearance (CL/F) ([1]; all doses investigated (5, 25, 100 mg once daily), steady state): 0.99 to 1.08 L/h
- AUC ([1]; 200 mg, 100 mg dosage as free base equivalent, steady state after once daily single doses for 21 days, read-out: AUCτ,ss): 168000 ± 38000 ng·h/mL
- AUC ([1]; 5 mg free base equivalent once daily, day 21 steady state, healthy volunteers n=12, dosing interval 24 hours, read-out: AUCτ): 5090 ng·h/mL
- Cmax ([1]; 5 mg free base equivalent once daily, day 21 steady state, healthy volunteers n=12, read-out: Cmax,ss): 301 ng/mL
- Cmax ([1]; 100 mg dosage as free base equivalent, steady state after once daily single doses for 21 days, read-out: mean maximum blood plasma concentration at steady state (mean Cmax,ss) of the free base): 6360 ± 1700 ng/mL
- Cmax ([1]; 200 mg dosage as free base equivalent, steady state after once daily single doses for 21 days, read-out: mean maximum blood plasma concentration at steady state (mean Cmax,ss) of the free base): 9990 ± 2610 ng/mL
- t1/2z with food intake prior to administration [2]: remains constant
- increase in AUC with food intake prior to administration ([2]; HPLC, worded 'may lead to'): at least 10%
- increase in mean Cmax with food intake prior to administration ([2]; HPLC, worded 'may lead to'): at least 25%
- t1/2z on average ([3]; 100 mg dosage as free base equivalent): 60 ± 4 h
- AUC ([3]; human, plasma, oral, 25 mg dosage as free base equivalent): 23400 ± 3020 ng·h/mL
- Cmax ([3]; human, plasma, oral, 25 mg dosage as free base equivalent, read-out: mean maximum blood plasma concentration at steady state (mean Cmax,ss) of the free base): 1360 ± 167 ng/mL
- AUC ([3]; human, plasma, oral, 100 mg dosage as free base equivalent): 109000 ± 28600 ng·h/mL
- fraction unbound [4]: 0.71
Structure (SMILES): CS(=O)(=O)O.Cc1nc(N(C)C(=O)Cc2ccc(-c3ccccn3)cc2)sc1S(N)(=O)=O [mono mesylate monohydrate salt, N-[5-(aminosulfonyl)-4-methyl-1,3-thiazol-2-yl]-N-methyl-2-[4-(2-pyridinyl)-phenyl]acetamide mono methanesulfonic acid monohydrate]
